Our source for the IC50 values is patent US8927562B2, “Fused tricyclic inhibitors of mammalian target of rapamycin” (Merck Sharp & Dohme Corp., priority 2010, dated 2015).

pIC50: −log10 of the molar value. Bounds are passed on as bounds.

The target of the test is mTOR enzyme (Homo sapiens, UniProt P42345). As to the kind of experiment: mTOR Kinase Assay. Type of test: biochemical. The following applies: 5 μM ATP, 0.1 μM GSTS6K substrate. As for the experimental part:
The mTOR assay buffer contains 10 mM hepes (pH 7.4), 50 mM NaCl, 100 μg/ml BSA, 50 mM B-glycerophosphate, 10 mM MnCl2 and 0.5 mM DTT. 20 ng of mTOR enzyme is preincubated with the compound for 10 minutes. 5 μM ATP and 0.1 μM GSTS6K is added. The reaction is incubated for one hour at 30° C. Anti phospho p70S6K (about 1.7 ng/well) and anti GSTXL665 (1:1 Ratio with the substrate GSTS6K) are added after incubating. The plates are read at least 2 hours after adding the anti phospho p70S6K and the anti GSTXL665.
Dose-response curves were plotted from inhibition data generated, each in duplicate, from 8 point serial dilutions of inhibitory compounds. Concentration of compound was plotted against % kinase activity, calculated by CPM of treated samples divided by CPM of untreated samples. To generate IC50 values, the dose-response curves were then fitted to a standard sigmoidal curve and IC50 values were derived by nonlinear regression analysis.
For `Cc1cn(C2CCN(C(=O)c3nnc(N)[nH]3)CC2)c2nc3c(-c4ccc(-c5ccccc5)nc4)cnn3c(N)c12` [Example 7], the negative-log IC50 (pIC50) (commonly −log10 of the IC50, conventionally taken in molar units) is 7.00 to 8.00.

With `Cc1cn(C2CCN(C(=O)c3nnc[nH]3)CC2)c2nc3c(-c4ccc(-c5ccccc5)nc4)cnn3c(N)c12` [Example 6], the pIC50 is 7.00 to 8.00.

`Cc1cn(C2CCN(C(=O)c3nnc[nH]3)CC2)c2nc3c(-c4ccc(-c5ccn(C)n5)nc4)cnn3c(N)c12` [Example 10]: the pIC50 is greater than 8.00.

Regarding `Nc1c2c(nc3c(-c4ccc(-c5ccccc5)nc4)cnn13)C(NC1CCOCC1)CC2` (stereo not drawn) [Example 3, 3-(6-phenylpyridin-3-yl)-N5-(tetrahydro-2H-pyran-4-yl)-6,7-dihydro-5H-cyclopenta[d]pyrazolo[1,5-a]pyrimidine-5,8-diamine], the pIC50 is less than 7.00.

In turn, `Cc1cn(C2CCN(C(=O)CO)CC2)c2nc3c(-c4ccc(-c5ccccc5)nc4)cnn3c(N)c12` [Example 9] showed a pIC50 greater than 8.00.

In the case of `Nc1c2c(nc3c(-c4ccc(-c5ccccc5)nc4)cnn13)CS(=O)(=O)C2` [Example 2, 3-(6-phenylpyridin-3-yl)-5,7-dihydropyrazolo[1,5-a]6,6-dioxidothieno[3,4-d]pyrimidin-8-amine], the pIC50 is 7.00 to 8.00.

For the molecule `C[C@@H](O)C(=O)N1Cc2nc3c(-c4ccc(-c5ccccc5)nc4)cnn3c(N)c2C1` [Example 1, (R)-1-(8-amino-3-(6-phenylpyridin-3-yl)-5H-pyrazolo[1,5-a]pyrrolo[3,4-d]pyrimidin-6(7H)-yl)-2-hydroxypropan-1-one], the pIC50 is 7.00 to 8.00.

For `Cc1cn(C2CCN(C(=O)CO)CC2)c2nc3c(-c4cnc5ccc(F)cc5c4)cnn3c(N)c12` [Example 4, 1-(4-(8-amino-3-(6-fluoroquinolin-3-yl)-7-methyl-5H-pyrazolo[1,5-a]pyrrolo[2,3-d]pyrimidin-5-yl)piperidin-1-yl)-2-hydroxyethanone], the pIC50 is greater than 8.00.

For the molecule `Cc1cn(C2CCN(C(=O)CO)CC2)c2nc3c(-c4cnn(-c5ccccc5)c4)cnn3c(N)c12` [Example 13], the pIC50 is greater than 8.00.

`Cc1cn(C2CCN(C(=O)c3cc(N)n[nH]3)CC2)c2nc3c(-c4ccc(-c5ccccc5)nc4)cnn3c(N)c12` [Example 8] gave a pIC50 of 7.00 to 8.00.

Molecule `Cc1cn(C2CCN(C(=O)CO)CC2)c2nc3c(-c4ccc(-c5ccn(C)n5)nc4)cnn3c(N)c12` [Example 11] had a pIC50 of 7.00 to 8.00.

As for `Cc1cn(C2CCN(C(=O)c3nnc[nH]3)CC2)c2nc3c(-c4cnn(-c5ccccc5)c4)cnn3c(N)c12` [Example 12], the pIC50 is 7.00 to 8.00.

`Cc1cn(C2CCN(C(=O)c3nnc[nH]3)CC2)c2nc3c(-c4ccc(-c5ncc[nH]5)nc4)cnn3c(N)c12` [Example 14] showed a pIC50 greater than 8.00.

`Cc1cn(C2CCN(C(=O)CO)CC2)c2nc3c(-c4ccc(-c5ncc[nH]5)nc4)cnn3c(N)c12` [Example 15] gave a pIC50 greater than 8.00.

In turn, `Cc1cn(C2CCN(C(=O)c3nnc[nH]3)CC2)c2nc3c(-c4cnc5ccc(F)cc5c4)cnn3c(N)c12` [Example 5] had a pIC50 greater than 8.00.
